Source: patent US12583855B2, “RET selective inhibitor, preparation method therefor and use thereof” (SHOUYAO HOLDINGS (BEIJING) CO., LTD., priority 2019, dated 2026)
Where a chain is given by its changes, count along the chain named.

Key:
[1] = Pharmacokinetic data of compounds in male SD rats; type: in vivo; conditions: rat, po, intragastric, 5 mg/kg, suspension MC 0.5%, plasma
Description: 6. Pharmacokinetic Data of Compounds
Male SD rats (Beijing Vital River Laboratory Animal Technology Co., Ltd) were divided into groups. 3 in each group, received intragastric administration with the suspension of the test sample (5 mg/kg, suspensions MC 0.5%), respectively. Animals were fasted overnight prior to the experiment from 10 h before dosing to 4 h after dosing. Blood was collected 0.25, 0.5, 1, 2, 4, 6, 8, and 24 h after administration, respectively. After isoflurane anesthesia using a small animal anesthesia machine, 0.3 mL of whole blood samples was taken through the fundus venous plexus, placed in a heparin anticoagulant tube, and were centrifuged at 4° C. 4000 rpm for 5 min plasma was transferred to the centrifuge tube, and stored at −80° C. until analysis. Samples in the plasma were extracted using protein precipitation and the extracts were analyzed by LC/MS.

TT cells = test: TT cell proliferation activity (Cell-Titer Glo); type: cell-based; conditions: TT human thyroid carcinoma cells, 120 h
Description: 4. Determination of TT Cell Proliferation Activity of Compounds
TT cells, a human thyroid carcinoma cell line, were cultured in Ham's F-12K medium supplemented with 15% fetal bovine serum (FBS, purchased from Biological Industries, BI) and 1% penicillin/streptomycin double antibody (P/S, purchased from Life Technology) under conditions of 37° C. and 5% CO2. TT cells were plated in a 96-well plate (#3917 purchased from Corning) at a concentration of 5000 cells/195 μL/well the day before compound was detected. The compounds were diluted 3-fold with 100% DMSO starting from 10 mM (10 concentrations in total) after 24 h, and 2 μL of each concentration was diluted in 48 μL of Ham's F-12K medium. 5 μL of each diluted compound was added to the plated Cell suspension, the compound and cells were co-incubated in a cell incubator for 120 h (5 days), after the medium was aspirated. 25 μL of Cell-Titer Glo (G7570, purchased from Promega) reagent was added and re-incubated for 5-10 min. Fluorescence value was then read on Envision and the data were calculated using GraphPad Prism software to obtain IC50 values for inhibition of cell proliferation by the compounds.

VEGFR2 = VEGFR2 (Homo sapiens, UniProt P35968); test: In vitro enzymatic activity assay on VEGFR2 (HTRF); type: biochemical; conditions: GST-VEGFR2 0.1 nM, ATP 2.5 μM
VEGFR2, sequence (P35968 20-1356): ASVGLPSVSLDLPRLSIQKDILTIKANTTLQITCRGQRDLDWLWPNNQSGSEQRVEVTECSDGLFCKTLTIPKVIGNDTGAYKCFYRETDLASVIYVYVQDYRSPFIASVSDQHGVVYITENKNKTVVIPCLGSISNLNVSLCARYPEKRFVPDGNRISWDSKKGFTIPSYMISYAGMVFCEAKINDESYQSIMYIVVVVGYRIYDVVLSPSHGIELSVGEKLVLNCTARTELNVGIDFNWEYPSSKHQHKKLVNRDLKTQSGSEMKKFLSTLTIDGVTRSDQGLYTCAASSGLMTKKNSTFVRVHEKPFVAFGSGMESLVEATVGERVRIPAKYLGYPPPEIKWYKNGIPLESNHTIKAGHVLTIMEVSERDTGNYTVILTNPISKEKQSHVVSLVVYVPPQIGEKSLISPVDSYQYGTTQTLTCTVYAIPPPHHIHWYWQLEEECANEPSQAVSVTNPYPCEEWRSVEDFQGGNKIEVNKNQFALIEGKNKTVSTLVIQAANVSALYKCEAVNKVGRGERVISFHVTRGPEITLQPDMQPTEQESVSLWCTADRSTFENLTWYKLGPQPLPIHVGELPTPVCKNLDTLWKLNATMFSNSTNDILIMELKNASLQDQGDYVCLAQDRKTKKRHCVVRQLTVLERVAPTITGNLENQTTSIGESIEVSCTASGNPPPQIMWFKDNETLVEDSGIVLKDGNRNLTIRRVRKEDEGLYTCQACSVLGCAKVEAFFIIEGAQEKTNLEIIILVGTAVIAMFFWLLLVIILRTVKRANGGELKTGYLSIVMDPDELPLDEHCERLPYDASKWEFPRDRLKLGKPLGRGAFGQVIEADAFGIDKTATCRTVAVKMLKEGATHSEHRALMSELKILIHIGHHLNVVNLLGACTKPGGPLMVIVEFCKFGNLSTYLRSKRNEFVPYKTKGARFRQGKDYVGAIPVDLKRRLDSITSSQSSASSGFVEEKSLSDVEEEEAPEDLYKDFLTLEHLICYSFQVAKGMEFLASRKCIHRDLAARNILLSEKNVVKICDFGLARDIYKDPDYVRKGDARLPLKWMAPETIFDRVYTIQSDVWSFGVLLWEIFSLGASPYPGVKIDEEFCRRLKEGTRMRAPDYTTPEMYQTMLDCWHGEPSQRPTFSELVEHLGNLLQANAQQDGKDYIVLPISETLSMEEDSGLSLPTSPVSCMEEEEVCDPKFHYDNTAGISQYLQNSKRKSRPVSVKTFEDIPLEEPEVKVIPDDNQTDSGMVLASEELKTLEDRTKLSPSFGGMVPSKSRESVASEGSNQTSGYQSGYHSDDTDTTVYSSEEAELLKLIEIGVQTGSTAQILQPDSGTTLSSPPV
Outline: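 GST-VEGFR2 (0.1 nM final) with 2.5 μM ATP and 1 μM TK peptide substrate in HEPES pH 7.5 buffer with Mg²⁺/Mn²⁺, 1.5 h at 23 °C. HTRF read-out (665/620 nm ratio) after adding TK antibody and streptavidin-XL665. IC50 from 7-point, 5-fold dilution series.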

RET^WT = biological target: T1, RET^WT (Homo sapiens, UniProt P07949); test: In vitro enzymatic activity assay on RET^WT (HTRF); type: biochemical; conditions: GST-RET^WT (658-1114 aa) 0.5 nM, ATP 25 μM
T1 construct: GST-RET^WT (658-1114 aa, final concentration of 0.5 nM)
T1 sequence (P07949 658-1114): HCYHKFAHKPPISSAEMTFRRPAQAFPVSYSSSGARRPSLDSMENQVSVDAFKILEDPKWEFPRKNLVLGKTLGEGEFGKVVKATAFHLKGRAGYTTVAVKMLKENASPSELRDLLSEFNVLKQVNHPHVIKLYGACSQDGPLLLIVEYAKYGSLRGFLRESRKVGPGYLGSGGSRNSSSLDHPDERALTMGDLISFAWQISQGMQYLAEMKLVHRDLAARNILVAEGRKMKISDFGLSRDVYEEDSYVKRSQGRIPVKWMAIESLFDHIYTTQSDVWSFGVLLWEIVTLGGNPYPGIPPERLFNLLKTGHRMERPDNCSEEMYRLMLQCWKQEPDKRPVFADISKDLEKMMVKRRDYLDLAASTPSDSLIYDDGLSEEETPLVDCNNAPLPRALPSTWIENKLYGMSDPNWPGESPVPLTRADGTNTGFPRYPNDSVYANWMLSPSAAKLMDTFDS
Outline: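 Reaction run 2 h at 23 °C in HEPES pH 7.5 buffer with Na3VO4, MgCl2, DTT, Tween 20 and BSA; compounds tested at 7 concentrations (5-fold serial dilution in DMSO from 0.2 mM stock). HTRF detection with TK antibody and streptavidin-XL665; IC50 from curve fitting.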

RET^V804M = biological target: T2, RET^V804M (Homo sapiens, UniProt P07949, V804M); test: In vitro enzymatic activity assay on RET^V804M (HTRF); type: biochemical; conditions: GST-RET^V804M (658-1114 aa) 0.02 nM, ATP 1.5 μM
T2 construct: GST-RET^V804M (658-1114 aa, final concentration of 0.02 nM)
T2 sequence (P07949 658-1114 V804M): T1 sequence (P07949 658-1114) with V147M

With `CSc1ccc(CN2CCN(c3ccc(-c4cc(-c5cnn(C)c5)cn5ncc(C#N)c45)cn3)CC2)cn1` [Example 10, 6-(1-methyl-1Hpyrazol-4-yl)-4-(6-(4-((6-(methylthio)pyridin-3-yl)methyl)piperazin-1-yl)pyridin-3-yl)pyrazolo[1,5-a]pyridine-3-carbonitrile] the AUC(0-inf) [1] was 15300 ng·h/mL, the Cmax [1] was 1490 ng/mL and the Tmax [1] was 4 h. For the same compound, the half-life [1] was 3.38 h, the IC50 (TT cells) was 23.8 nM and the IC50 (VEGFR2) was 13.9 nM.

With `Cn1cc(-c2cc(-c3ccc(N4CCN(Cc5cccc(S(C)(=O)=O)c5)CC4)nc3)c3c(C#N)cnn3c2)cn1` [Example 15, 6-(1-methyl-1Hpyrazol-4-yl)-4-(6-(4-(3-(methylsulfonyl)benzyl)piperazin-1-yl)pyridin-3-yl)pyrazolo[1,5-a]pyridine-3-carbonitrile] the AUC(0-inf) [1] was 6650 ng·h/mL, the Cmax [1] was 1330 ng/mL and the Tmax [1] was 1.17 h. The half-life [1] was 3.56 h, the IC50 (TT cells) was 17.8 nM and the IC50 (VEGFR2) was 11.8 nM.

Work on `Cn1cc(-c2cc(-c3ccc(N4CCN(Cc5ccc(S(C)(=O)=O)cc5)CC4)nc3)c3c(C#N)cnn3c2)cn1` [Example 16, 6-(1-methyl-1Hpyrazol-4-yl)-4-(6-(4-(4-(methylsulfonyl)benzyl)piperazin-1-yl)pyridin-3-yl)pyrazolo[1,5-a]pyridine-3-carbonitrile] yielded an AUC(0-inf) [1] of 42700 ng·h/mL, a Cmax [1] of 3790 ng/mL and a Tmax [1] of 4 h. For the same compound, the half-life [1] was 4.08 h, the IC50 (TT cells) was 36.7 nM and the IC50 (VEGFR2) was 8.95 nM.

With `Cn1cc(-c2cc(-c3ccc(N4CC5CC(C4)N5Cc4ccccc4S(C)(=O)=O)nc3)c3c(C#N)cnn3c2)cn1` [Example 43, 6-(1-methyl-1Hpyrazol-4-yl)-4-(6-(6-(2-(methylsulfonyl)benzyl)-3,6-diazabicyclo[3.1.1]heptan-3-yl)pyridin-3-yl)pyrazolo[1,5a]pyridine-3-carbonitrile] the IC50 (RET^WT) was 0.132 nM, the IC50 (TT cells) was 16.4 nM and the IC50 (RET^V804M) was 0.507 nM. For the same compound, the IC50 (VEGFR2) was 13.4 nM.

Work on `CS(=O)(=O)c1cccc(CN2CCN(c3ccc(-c4cc(-c5cnn(C(F)F)c5)cn5ncc(C#N)c45)cn3)CC2)c1` [Example 47, 6-(1-difluoromethyl-1Hpyrazol-4 yl)-4-(6-(4-(3-(methylsulfonyl)benzyl)piperazin-1-yl)pyridin-3-yl)pyrazolo[1,5-a]pyridine-3-carbonitrile] yielded an IC50 (RET^WT) of 0.343 nM, an IC50 (TT cells) of 53.1 nM and an IC50 (RET^V804M) of 2.48 nM. For the same compound, the IC50 (VEGFR2) was 16.9 nM.

`CS(=O)(=O)c1ccc(CN2C3CC2CN(c2ccc(-c4cc(-c5cn[nH]c5)cn5ncc(C#N)c45)cn2)C3)cc1` [Example 53, 6-(1Hpyrazol-4-yl)-4-(6-(6-(4-(methylsulfonyl)benzyl)-3,6-diazabicyclo 13.1.11 heptan-3-yl)pyridin-3-yl)pyrazolo[1,5-a]pyridine-3-carbonitrile] showed an IC50 (RET^WT) of 0.072 nM, an IC50 (TT cells) of 14.6 nM and an IC50 (RET^V804M) of 0.807 nM. It also gave an IC50 (VEGFR2) of 2.46 nM.

Compound `CS(=O)(=O)c1cccc(CN2C3CC2CN(c2ccc(-c4cc(-c5cnn(C(F)F)c5)cn5ncc(C#N)c45)cn2)C3)c1` [Example 55, 6-(1-difluoromethyl-1Hpyrazol-4-yl)-4-(6-(6-(3-(methylsulfonyl)benzyl)-3,6-diazabicyclo[3.1.1]heptan-3-yl)pyridin-3-yl)pyrazolo[1,5-a]pyridine-3-carbonitrile] has an IC50 (RET^WT) of 0.109 nM, an IC50 (TT cells) of 15.4 nM and an IC50 (RET^V804M) of 0.976 nM. The IC50 (VEGFR2) was 19.6 nM.

`CS(=O)(=O)c1ccccc1CN1C2CC1CN(c1ccc(-c3cc(-c4cnn(C(F)F)c4)cn4ncc(C#N)c34)cn1)C2` [Example 56, 6-(1-difluoromethyl-1Hpyrazol-4-yl)-4-(6-(6-(2-(methylsulfonyl)benzyl)-3,6-diazabicyclo[3.1.1]heptan-3-yl)pyridin-3-yl)pyrazolo[1,5-a]pyridine-3-carbonitrile] gave an IC50 (RET^WT) of 0.08 nM, an IC50 (TT cells) of 39.9 nM and an IC50 (RET^V804M) of 1.78 nM. It also gave an IC50 (VEGFR2) of 59 nM.

With `CS(=O)(=O)c1cccc(CN2C3CC2CN(c2ccc(-c4cc(N5CC(F)(F)C5)cn5ncc(C#N)c45)cn2)C3)c1` [Example 64, 6-(3,3-difluoroazetidin-1-yl)-4-(6-(6-(3-(methylsulfonyl)benzyl)-3,6-diazabicyclo[3.1.1]heptan-3-yl)pyridin-3-yl)pyrazolo[1,5-a]pyridine-3-carbonitrile] the IC50 (RET^WT) was 0.493 nM, the IC50 (TT cells) was 42.2 nM and the IC50 (RET^V804M) was 1.71 nM. For the same compound, the IC50 (VEGFR2) was 15.5 nM.

For `Cn1cc(-c2cc(-c3ccc(N4CC5CC(C4)N5Cc4ccc(S(C)(=O)=O)nc4)nc3)c3c(C#N)cnn3c2)cn1` [Example 76, 6-(1-(methyl)-1Hpyrazol-4-yl)-4-(6-(6-((6-(methylsulfonyl)pyridin-3-yl)methyl)-3,6-diazabicyclo[3.1.1]heptan-3-yl)pyridin-3-yl)pyrazolo[1,5-a]pyridine-3-carbonitrile], the IC50 (RET^WT) was 0.296 nM, the IC50 (TT cells) was 16.6 nM and the IC50 (RET^V804M) was 0.479 nM. For the same compound, the IC50 (VEGFR2) was 2.81 nM.

With `CS(=O)(=O)c1ccc(CN2C3CC2CN(c2ccc(-c4cc(-c5cnn(C(F)F)c5)cn5ncc(C#N)c45)cn2)C3)cn1` [Example 77, 6-(1-(difluoromethyl)-1Hpyrazol-4-yl)-4-(6-(6-((6-(methylsulfonyl)pyridin-3-yl)methyl)-3,6-diazabicyclo[3.1.1]heptan-3-yl)pyridin-3-yl)pyrazolo[1,5-a]pyridine-3-carbonitrile] the IC50 (RET^WT) was 0.468 nM, the IC50 (TT cells) was 23.1 nM and the IC50 (RET^V804M) was 0.791 nM. It also gave an IC50 (VEGFR2) of 7.56 nM.

Work on `CS(=O)(=O)c1ccc(CN2C3CC2CN(c2ccc(-c4cc(-c5cnn(C(F)F)c5)cn5ncc(C#N)c45)cn2)C3)nc1` [Example 78, 6-(1-(difluoromethyl)-1Hpyrazol-4-yl)-4-(6-(6-((5-(methylsulfonyl)pyridin-2-yl)methyl)-3,6-diazabicyclo[3.1.1]heptan-3-yl)pyridine-3-yl)pyrazolo[1,5-a]pyridine-3-carbonitrile] yielded an IC50 (RET^WT) of 0.387 nM, an IC50 (TT cells) of 28.2 nM and an IC50 (RET^V804M) of 1.04 nM. For the same compound, the IC50 (VEGFR2) was 10.4 nM.

`Cn1cc(-c2cc(-c3ccc(N4CC5CC(C4)N5Cc4ccc(S(C)(=O)=O)cn4)nc3)c3c(C#N)cnn3c2)cn1` [Example 79, 6-(1-(methyl)-1Hpyrazol-4-yl)-4-(6-(6-((5-(methylsulfonyl)pyridin-2-yl)methyl)-3,6-diazabicyclo[3.1.1]heptan-3-yl)pyridin-3-yl)pyrazolo[1,5-a]pyridine-3-carbonitrile] gave an IC50 (RET^WT) of 0.331 nM, an IC50 (TT cells) of 21.3 nM and an IC50 (RET^V804M) of 0.64 nM. It also gave an IC50 (VEGFR2) of 5.21 nM.
